For experiment [1], the system named is T. cruzi (Tulahuen strain). Description: microbe, parasite or virus in culture. In kind it is cell-based, Trypanosoma cruzi. The settings on record: for activity at 10 µM / EC50: Trypanosoma cruzi, TULAHUEN, Fibroblast; for activity at 10 µM: 120 h, read-out: T. cruzi % growth @ 10 uM (Amastigotes); for EC50: read-out: T. cruzi EC50. Summed up: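 Tulahuen parasites expressing beta-galactosidase were added (1×10^4 trypomastigotes/well) to 3T3 fibroblasts plated 24 h earlier, 4 h before compound (10 µM final).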

A further experiment concerns 3T3 fibroblast cells. Description: cells. In kind it is cell-based, murine. The conditions noted are these: 10 uM; for activity at 10 µM: Mus musculus, NIH3T3, 72 h, read-out: Mammalian (3T3) cell % growth at 10 uM.

“And” between values parts separate entries of the source, which are not always exact repeats. Equal values may be shown once. Where a name gives a salt, the structure may show the parent alone. Read-outs that look alike come from different tables or passages of the source. A value given as a limit tells only on which side of the number the result lay.

On to `COC(=O)C1C2CC3c4[nH]c5cc(OC)ccc5c4CCN3CC2CC(OC(=O)c2cc(OC)c(OC)c(OC)c2)C1OC` (stereo not shown) [RESERPINE, methyl 6,18-dimethoxy-17-[(3,4,5-trimethoxyphenyl)carbonyloxy]-3,13-diazapentacyclo[11.8.0.0^{2,10}.0^{4,9}.0^{15,20}]henicosa-2(10),4(9),5,7-tetraene-19-carboxylate], for which the activity at 10 µM in experiment [1] (10 uM, Table S2) amounted to 4%; in the experiment on 3T3 fibroblast cells (Table S2), 100%. In addition, the EC50 is 5.97 µM in experiment [1] (Table S2, amastigotes) and < 10 µM in experiment [1].
Turning to `O=c1cc(-c2cc(O)c(O)c(O)c2)oc2cc(O)cc(O)c12` [HIERACIN, 5,7-dihydroxy-2-(3,4,5-trihydroxyphenyl)-4H-chromen-4-one], the activity at 10 µM in experiment [1] (10 uM, Table S2) was 6.5%; in the experiment on 3T3 fibroblast cells (Table S2), 100%.
For the compound `Cc1nc2ccccn2c(=O)c1CCN1CCC(C(=O)c2ccc(F)cc2)CC1` [PIRENPERONE, 3-(2-{4-[(4-fluorophenyl)carbonyl]piperidin-1-yl}ethyl)-2-methyl-4H-pyrido[1,2-a]pyrimidin-4-one], the activity at 10 µM was 23.1% in experiment [1] (10 uM, Table S2) and 91.6% with 3T3 fibroblast cells (Table S2).
Take `Clc1ccccc1C(c1ccccc1)(c1ccccc1)n1ccnc1` [CLOTRIMAZOLE, 1-[(2-chlorophenyl)diphenylmethyl]-1H-imidazole]: the activity at 10 µM in experiment [1] (10 uM, Table S2) amounted to 10.2%; in the experiment with 3T3 fibroblast cells (Table S2), 100%.
`COc1cc2c(cc1OC)-c1cc3ccc(OC)c(OC)c3c[n+]1CC2.[Cl-]` [PALMATINE, 3,4,10,11-tetramethoxy-7,8-dihydro-6000000l^5-azatetraphen-6-ylium l^3-chloridyl]: the “T. cruzi % growth @ 10 uM (Amastigotes)” value in experiment [1] (10 uM, Table S2) is 8.1% and 11.5%. For the same compound, the “Mammalian (3T3) cell % growth at 10 uM” value in the experiment on 3T3 fibroblast cells (Table S2) is 100.0% and 95.9%.
For the compound `COc1cc2ccc(=O)oc2c(O)c1O` [FRAXETIN, 7,8-dihydroxy-6-methoxy-2H-chromen-2-one], the activity at 10 µM was 8.1% in experiment [1] (10 uM, Table S2) and 100% in the experiment with 3T3 fibroblast cells (Table S2).
For `CCN(CC)CCOc1ccc(C(=C(Cl)c2ccccc2)c2ccccc2)cc1` [CLOMIPHENE, {2-[4-(2-chloro-1,2-diphenylethenyl)phenoxy]ethyl}diethylamine], the activity at 10 µM worked out at 12.9% in experiment [1] (10 uM, Table S2) and 100% with 3T3 fibroblast cells (Table S2).
For `CC(=O)OC1CC2C(C)(C)C(=O)C3OC3C2(C)C2CCC3(C)C(c4ccoc4)OC(=O)C4OC43C12C` (stereo not shown) [EPOXYGEDUNIN, 7-(furan-3-yl)-1,8,12,17,17-pentamethyl-5,16-dioxo-3,6,14-trioxahexacyclo[9.9.0.0^{2,4}.0^{2,8}.0^{12,18}.0^{13,15}]icosan-20-yl acetate], the activity at 10 µM was determined as 4.4% in experiment [1] (10 uM, Table S2) and 73.4% in the experiment on 3T3 fibroblast cells (Table S2).
`COc1ccc2c(c1)OC/C(=C/c1ccc(OC)c(OC)c1)C2=O` [SAPPANONE A TRIMETHYL ETHER]: the activity at 10 µM turned out to be 7.5% in experiment [1] (10 uM, Table S2) and 74.6% in the experiment with 3T3 fibroblast cells (Table S2).
On to `CCN(CCO)CCCC(C)Nc1ccnc2cc(Cl)ccc12` (stereo not shown) [HYDROXYCHLOROQUINE SULFATE, 2-({4-[(7-chloroquinolin-4-yl)amino]pentyl}(ethyl)amino)ethan-1-ol; sulfuric acid], for which the activity at 10 µM in experiment [1] (10 uM, Table S1) was 0.1%; in the experiment with 3T3 fibroblast cells (Table S1), 100%. For the same compound, the EC50 in experiment [1] (Table S2, amastigotes) turned out to be 4.64 µM.
As to `C=CC(C)(O)CCC1C(=C)CC(O)C2C(C)(C)CCCC12C` (stereo not shown) [LARIXOL, 4-(3-hydroxy-3-methylpent-4-en-1-yl)-4a,8,8-trimethyl-3-methylidene-decahydronaphthalen-1-ol], the activity at 10 µM in experiment [1] (10 uM, Table S2) was found to be 6.4%; with 3T3 fibroblast cells (Table S2) it was 74%.
Take `CC(C)CCCC(C)C1CCC2C3CC(=O)C4CC(O)CCC4(C)C3CCC12C` (stereo not drawn) [5alpha-CHOLESTAN-3beta-OL-6-ONE, 5-hydroxy-2,15-dimethyl-14-(6-methylheptan-2-yl)tetracyclo[8.7.0.0^{2,7}.0^{11,15}]heptadecan-8-one]: the activity at 10 µM is 7.8% in experiment [1] (10 uM, Table S2) and 100% in the experiment with 3T3 fibroblast cells (Table S2).
The matching figures for `OCCN1CCN(CCCN2c3ccccc3Sc3ccc(C(F)(F)F)cc32)CC1` [FLUPHENAZINE, 2-(4-{3-[2-(trifluoromethyl)-10H-phenothiazin-10-yl]propyl}piperazin-1-yl)ethan-1-ol]: 2.2% and 100%.
For `COc1cc(O)c2c(c1)C(=O)c1cc(C)cc(O)c1C2=O` [PHYSCION, 1,8-dihydroxy-3-methoxy-6-methyl-9,10-dihydroanthracene-9,10-dione], the activity at 10 µM in experiment [1] (10 uM, Table S2) is 9.2%; with 3T3 fibroblast cells (Table S2), 96.8%.
In the case of `CC1(C)C2CC(=O)O[C@@]3(C)C4=CC(=O)O[C@@H](c5ccoc5)[C@]4(C)CCC3[C@@]2(C)C=C[C@H]1O` (stereo partly shown) [DEOX[…]], the activity at 10 µM was 13.2% in experiment [1] (10 uM, Table S2) and 82.7% in the experiment on 3T3 fibroblast cells (Table S2).
`CNc1ccc(C(=O)CC(O)CCC(C)C2OC(=O)CC(O)CC(=O)CC(O)CC(O)CC(O)CC(O)CC3(O)CC(O)C(C(=O)OC)C(CC(O[C@@H]4O[C@H](C)[C@@H](O)[C@H](N)[C@@H]4O)/C=C/C=C/C=C/C=C\C=C/C=C/C=C/C2C)O3)cc1` (stereo partly drawn) [MEPARTRICIN, methyl (19E,21E,23Z,25Z,27E,29E,31E)-33-{[(2R,3S,4S,5S,6R)-4-amino-3,5-dihydroxy-6-methyloxan-2-yl]oxy}-1,3,5,7,9,13,37-heptahydroxy-17-{5-hydroxy-7-[4-(methylamino)phenyl]-7-oxoheptan-2-yl}-18-methyl-11,15-dioxo-16,39-dioxabicyclo[33.3.1]nonatriaconta-19,21,23,25,27,29,31-heptaene-36-carboxylate]: the activity at 10 µM in experiment [1] (10 uM, Table S2) was 2.6%; in the experiment on 3T3 fibroblast cells (Table S2), 97.3%.
For the compound `COc1c(C)c2c(c(O)c1CC=C(C)CCC(=O)O)C(=O)OC2` [MYCOPHENOLIC ACID, 6-(4-hydroxy-6-methoxy-7-methyl-3-oxo-1,3-dihydro-2-benzofuran-5-yl)-4-methylhex-4-enoic acid], the activity at 10 µM in experiment [1] (10 uM, Table S2) was found to be 12.2%; in the experiment on 3T3 fibroblast cells (Table S2), 97.2%. In addition, the concentration for a half-maximal effect (EC50) in experiment [1] (Table S2, amastigotes) turned out to be 0.32 µM.
As for `COc1ccc2c(c1)OCC(Cc1ccc(OC)c(OC)c1)C2=O` (stereo not shown) [3-[(3,4-dimethoxyphenyl)methyl]-7-methoxy-3,4-dihydro-2H-1-benzopyran-4-one], the activity at 10 µM in experiment [1] (10 uM, Table S2) was 8.3%; in the experiment on 3T3 fibroblast cells (Table S2) it was 84.5%.
`CCC(=O)O[C@H]1CC[C@H]2[C@@H]3CCc4cc(O)ccc4[C@H]3CC[C@]12C` [ESTRADIOL PROPIONATE, (1S,10R,11S,14S,15S)-5-hydroxy-15-methyltetracyclo[8.7.0.0^{2,7}.0^{11,15}]heptadeca-2,4,6-trien-14-yl propanoate]: the activity at 10 µM is 20.3% in experiment [1] (10 uM, Table S2) and 100% with 3T3 fibroblast cells (Table S2).
The corresponding values for `COC1CC(OC2C(C)C(=O)OC(C)C(C)C(O)C(C)C(=O)C3(CO3)CC(C)C(OC3OC(C)CC(N(C)C)C3O)C2C)OC(C)C1O` (stereo not shown) [OLEANDOMYCIN PHOSPHATE, 14-{[4-(dimethylamino)-3-hydroxy-6-methyloxan-2-yl]oxy}-6-hydroxy-12-[(5-hydroxy-4-methoxy-6-methyloxan-2-yl)oxy]-5,7,8,11,13,15-hexamethyl-1,9-dioxaspiro[2.13]hexadecane-4,10-dione; phosphoric acid] are 15.7% and 100%.
The matching figures for `CC(=O)OC1CC2C(C)(C)C(O)CCC2(C)C2CCC3(C)C(c4ccoc4)OC(=O)C4OC43C12C` (stereo not drawn) [beta-DIHYDROGEDUNOL, 7-(furan-3-yl)-15-hydroxy-1,8,12,16,16-pentamethyl-5-oxo-3,6-dioxapentacyclo[9.8.0.0^{2,4}.0^{2,8}.0^{12,17}]nonadecan-19-yl acetate]: 21.8% and 76.3%.

The record behind these values is article PMC4102417 (PLoS Neglected Tropical Diseases, 2014).
